The values below come from ChEMBL document CHEMBL5036301, “Heteroaryl ether analogues of an antileishmanial 7-substituted 2-nitroimidazooxazine lead afford attenuated hERG risk: In vitro and in vivo appraisal” (Eur J Med Chem, 2021).

In brackets after ≈: the same amount, converted by molar mass.

Data set [1] deals with Leishmania donovani. In words: Antileishmanial activity against Leishmania donovani amastigotes infected in BALB/C mouse assessed as reduction in parasite burden in liver tissue at 50 mg/kg, po administered once per day for 5 days relative to control. The format is functional. The following applies: 120 h, time 5 day.
A short description of data set [2]: Half life in mouse at 25 mg/kg, po measured upto 24 hrs LC-MS/MS analysis. The following applies: in vivo.
The nature of data set [3]: Half life in hamster at 41 to 51 mg/kg, po measured upto 24 hrs LC-MS/MS analysis. The following applies: chinese hamster, in vivo.
The nature of data set [4]: AUClast in hamster at 41 to 51 mg/kg, po measured upto 24 hrs LC-MS/MS analysis. Particulars: chinese hamster, in vivo.
Data set [5] in a line: AUClast in mouse at 25 mg/kg, po measured upto 24 hrs LC-MS/MS analysis. The following applies: in vivo.
A short description of data set [6]: in vivo. The following applies: chinese hamster, po.
Data set [7] is described as follows: in vivo. Particulars: mouse, po, 25 mg/kg.
Data set [8] relates to Leishmania infantum. Nature of the data set: Antileishmanial activity against Leishmania infantum amastigotes infected in golden hamster assessed as reduction in parasite load in spleen tissue at 50 mg/kg, po administered once daily for 5 days relative to control. Format: functional. The following applies: 120 h, time 5 day.
Data set [9] has as its system Leishmania infantum. In words: Antileishmanial activity against Leishmania infantum amastigotes infected in golden hamster assessed as reduction in parasite load in bone marrow tissue at 50 mg/kg, po administered once daily for 5 days relative to control. Format: functional. Particulars: 120 h, time 5 day.
In another data set the test system is MRC5. In words: Cytotoxicity against human MRC5 cells assessed as cell viability after 72 hrs by fluorimetric analysis. Format: ADME, cell-based. Particulars: MRC5, 72 h.
Data set [10] has as its system Mycobacterium tuberculosis. Nature of the data set: Antitubercular activity against Mycobacterium tuberculosis H37Rv assessed as reduction in microbial growth under anaerobic condition by luminescence analysis. Format: functional.
Data set [11] can be described thus: in vivo. The following applies: mouse, po, 25 mg/kg. The source holds these as a separate data set.
Data set [12] is described as follows: in vivo. The following applies: chinese hamster, po. This is another data set of the same source.
The test system of data set [13] is Mycobacterium tuberculosis. Nature of the data set: Antitubercular activity against Mycobacterium tuberculosis H37Rv assessed as reduction in microbial growth under aerobic condition by luminescence analysis. The format is functional.
A further data set has as its system Trypanosoma cruzi. In words: Antitrypanosomal activity against Trypanosoma cruzi Tulahuen CL2 infected in human MRC-5 cells assessed as parasite growth. The format is functional, organism-based. Particulars: Tulahuen CL2, MRC5.
Data set [14] deals with Leishmania infantum. Nature of the data set: Antileishmanial activity against Leishmania infantum MHOM/MA(BE)/67 amastigotes infected in macrophages assessed as reduction in parasite burden by giemsa staining based microscopic analysis. The format is functional, organism-based.
The subject of data set [15] is Leishmania infantum. Nature of the data set: Antileishmanial activity against Leishmania infantum amastigotes infected in golden hamster assessed as reduction in parasite load in liver tissue at 50 mg/kg, po administered once daily for 5 days relative to control. Format: functional. The following applies: 120 h, time 5 day.
Data set [16] is described as follows: Kinetic solubility of compound in water at pH7 by HPLC analysis. Particulars: pH 7.
The nature of data set [17]: Clearance in mouse at 1 mg/kg, iv measured upto 24 hrs LC-MS/MS analysis. Particulars: in vivo.
Data set [18] in a line: Kinetic solubility of compound in 0.1 M Hcl at pH1 by HPLC analysis. Format: physicochemical. The following applies: pH 1, read-out: Kinetic_solubility.
The nature of data set [19]: Initial plasma concentration in mouse at 1 mg/kg, iv measured upto 24 hrs LC-MS/MS analysis.
Data set [20] has as its system Leishmania donovani. Nature of the data set: Antileishmanial activity against Leishmania donovani amastigotes infected in mouse J774A.1 cells incubated for 72 hrs by luciferase assay. Format: functional, organism-based. The following applies: J774.A1, 72 h.
Data set [21] can be described thus: Half life in mouse at 1 mg/kg, iv measured upto 24 hrs LC-MS/MS analysis. Particulars: in vivo.
A further data set deals with hERG (KCNH2) (Homo sapiens, UniProt Q12809). Nature of the data set: Inhibition of human ERG expressed in HEK293 cells at 10 uM relative to control. The format is cell-based. The following applies: HEK293 cells expressing human ERG.
hERG (KCNH2), sequence (Q12809 whole entry): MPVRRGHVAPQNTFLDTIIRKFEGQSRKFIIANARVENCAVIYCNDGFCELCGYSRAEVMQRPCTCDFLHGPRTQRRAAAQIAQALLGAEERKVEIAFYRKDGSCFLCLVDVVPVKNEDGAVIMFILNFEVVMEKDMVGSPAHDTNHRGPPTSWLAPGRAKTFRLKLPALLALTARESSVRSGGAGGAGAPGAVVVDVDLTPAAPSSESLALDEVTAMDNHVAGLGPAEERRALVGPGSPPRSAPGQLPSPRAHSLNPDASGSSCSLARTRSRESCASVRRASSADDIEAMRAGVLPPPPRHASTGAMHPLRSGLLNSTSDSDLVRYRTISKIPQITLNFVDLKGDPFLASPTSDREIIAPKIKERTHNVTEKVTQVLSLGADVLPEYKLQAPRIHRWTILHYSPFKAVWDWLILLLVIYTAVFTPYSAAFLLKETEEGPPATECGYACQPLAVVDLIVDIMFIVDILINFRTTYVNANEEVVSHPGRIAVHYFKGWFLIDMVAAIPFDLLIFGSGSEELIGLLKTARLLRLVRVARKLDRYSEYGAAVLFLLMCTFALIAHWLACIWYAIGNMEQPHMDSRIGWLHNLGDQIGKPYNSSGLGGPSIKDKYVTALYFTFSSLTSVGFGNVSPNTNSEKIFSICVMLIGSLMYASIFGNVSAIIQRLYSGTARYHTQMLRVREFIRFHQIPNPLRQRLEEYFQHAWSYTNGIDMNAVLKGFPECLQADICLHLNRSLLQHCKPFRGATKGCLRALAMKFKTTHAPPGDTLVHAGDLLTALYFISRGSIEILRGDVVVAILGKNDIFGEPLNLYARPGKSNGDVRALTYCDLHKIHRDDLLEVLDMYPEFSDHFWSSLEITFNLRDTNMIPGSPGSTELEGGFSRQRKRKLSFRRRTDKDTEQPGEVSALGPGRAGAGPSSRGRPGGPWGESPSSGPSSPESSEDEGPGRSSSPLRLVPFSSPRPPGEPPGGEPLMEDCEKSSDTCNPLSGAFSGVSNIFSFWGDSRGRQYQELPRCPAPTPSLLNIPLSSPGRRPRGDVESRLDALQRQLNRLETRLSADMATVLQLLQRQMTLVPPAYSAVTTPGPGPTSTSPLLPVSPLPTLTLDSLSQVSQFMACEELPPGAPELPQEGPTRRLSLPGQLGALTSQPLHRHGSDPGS
A short description of data set [22]: Volume of distribution at steady state in mouse at 1 mg/kg, iv measured upto 24 hrs LC-MS/MS analysis. Particulars: in vivo.
Data set [23] is described as follows: AUClast in mouse at 1 mg/kg, iv measured upto 24 hrs LC-MS/MS analysis. Particulars: in vivo, 24 h.
For data set [24] the following is noted: mouse, in vivo, po, 25 mg/kg, 24 h.

With `C[C@]1(COc2ccc(C(F)(F)F)cn2)CCn2cc([N+](=O)[O-])nc2O1`, the inhibition in vivo (in general, the percentage by which the read-out fell short of the control) at 50 mg/kg in the data set with Leishmania donovani [1] is 84%; in the data set with Leishmania infantum [8], 47.1%; with Leishmania infantum [9], 54%; with Leishmania infantum [15], 51.8%. Further, the half-life (in general, how long it takes for the measured level to halve) at 24 h in data set [2] is 90 min; in [3] it was 43.2 min. Moreover, the AUC(0-t) – broadly, the area under the concentration-time curve up to a stated or last time point – at 24 h is 72 ng·h/mL in data set [4] and 39600 ng·h/mL in data set [5]. For the same molecule, the Cmax – broadly, the peak of the concentration-time curve – at 24 h came to 45 ng/mL in “in vivo [6]” and 9500 ng/mL in the data set “in vivo [11]”. For the same molecule, the Tmax (usually the time at which the peak concentration occurs) at 24 h in “in vivo [7]” came to 222 min; in the data set “in vivo [12]”, 45 min. Also, the IC50 (as a rule, the point on the concentration scale where inhibition reaches its midpoint) in the data set with MRC5 is above 64 µM; in the data set with Trypanosoma cruzi, 0.34 µM; with Leishmania infantum [14], 0.29 µM. Besides, the MIC (commonly the lowest concentration that inhibits growth of the organism) amounted to 3.8 µM in data set [10] and 0.16 µM in data set [13]. For the same molecule, the solubility kinetic in data set [16] stood at 26 µg/mL (≈ 72.6 µM).

`CC1(COc2ccc(C(F)(F)F)cn2)CCn2cc([N+](=O)[O-])nc2O1` (configuration not stated): the clearance (as a rule, the rate of elimination divided by the concentration) at 24 h in data set [17] worked out at 31 mL/min/kg. The inhibition in vivo at 50 mg/kg in the data set with Leishmania donovani [1] was found to be 96%. In addition, the solubility kinetic came to 12 µg/mL (≈ 33.5 µM) in data set [18] and 19 µg/mL (≈ 53 µM) in data set [16]. Also, the C0 at 24 h in data set [19] stood at 810 ng/mL. The IC50 was 0.21 µM with Leishmania donovani [20], above 64 µM with MRC5, 0.29 µM in the data set on Trypanosoma cruzi and 0.27 µM in the data set with Leishmania infantum [14]. In addition, the AUClast was 57100 ng·h/mL in data set [5] (24 h) and 544 ng·h/mL in data set [23]. Moreover, in the data set “in vivo [7]”, the Tmax at 24 h was 30 min. Besides, the values for the MIC in [10] and in data set [13] were 8.9 µM and 0.6 µM, respectively. For the same molecule, the Cmax at 24 h in the data set “in vivo [11]” was found to be 15000 ng/mL. The same molecule gave a half-life at 24 h in data set [21] of 51 min. Moreover, at 10 µM the inhibition at hERG (KCNH2) was 18%. The Vd (in general, a proportionality between amount in the body and measured concentration, not a real space) at 24 h in [22] is 1.3 L/kg. The F in data set [24] was determined as 100%.
